From ChEMBL document CHEMBL4483862, “Open-source discovery of chemical leads for next-generation chemoprotective antimalarials” (2018)
pIC50: −log10 of the molar value.

Test system: Plasmodium berghei
Assay: Luciferase/luciferin-expressing antifolate-resistant parasites were used to infect a culture of HepG2 cells that were pre-incubated with compounds. Infected hepatocytes emit light due to the luciferase reaction. Assay results are presented as the percent inhibition of light emission compared to control. […]
Assay type: functional
Settings: sporozoite; for IC90: read-out: LUCIFERASE INFECTION ASSAY - IC90
[1] = read-out: LUCIFERASE INFECTION ASSAY - IC50

| SMILES | pIC50 [1] | IC90 [µM] | also measured |
| --- | --- | --- | --- |
| CSCCC(NC(=O)c1ccc([N+](=O)[O-])cc1Cl)C(=O)OCC(=O)Nc1ccc(OC(F)(F)F)cc1 (stereo not given) | < 5.00 | > 10 | – |
| COc1ccc(C2(c3ccc(OC)cc3)NC(=O)N(CC(=O)c3cc(C)n(C4CC4)c3C)C2=O)cc1 | – | > 10 | pIC50 (PBLUC_HILL_SLOPE 10.1, PBLUC_R_SQUARED 0.388, read-out: LUCIFERASE INFECTION ASSAY - IC50): 5.07 |
| Cc1c(NC(=O)c2cccc(Nc3nc(-c4cccs4)nc4ccccc34)c2)c(=O)n(-c2ccccc2)n1C | 5.04 | > 10 | – |
| Cc1c(-c2ccccc2)sc2[nH]c(SC(C(=O)c3ccccc3)c3ccccc3)nc(=O)c12 (stereo not given) | – | > 10 | pIC50 (HEPG2TOX_HILL_SLOPE 4.76, HEPG2TOX_R_SQUARED 0.813, PBLUC_HILL_SLOPE 2.74, PBLUC_R_SQUARED 0.111, read-out: LUCIFERASE INFECTION ASSAY - IC50): 5.17 |
| CN(CC(=O)Nc1ccccc1N1CCCCCC1)S(=O)(=O)c1ccccc1C#N | – | > 10 | pIC50 (HEPG2TOX_HILL_SLOPE 3.04, HEPG2TOX_R_SQUARED 0.862, PBLUC_HILL_SLOPE 1.2, PBLUC_R_SQUARED 0.365, read-out: LUCIFERASE INFECTION ASSAY - IC50): 5.01 |
| Cn1c(Nc2ccccc2)nc2cnc(-c3ccc(F)c(Cl)c3)cc21 | – | > 10 | pIC50 (PBLUC_HILL_SLOPE 3.09, PBLUC_R_SQUARED 0.397, read-out: LUCIFERASE INFECTION ASSAY - IC50): 5.13 |
| CC(C)(C)NC(=S)N/N=C/c1ccnc(SCc2ccc(Cl)cc2)n1 | – | > 8.38 | pIC50 (PBLUC_HILL_SLOPE 1.91, PBLUC_R_SQUARED 0.389, read-out: LUCIFERASE INFECTION ASSAY - IC50): 5.24 |
| CCCCNC(=O)c1c(NC(=O)c2ccc(F)cc2)nc2ccccn12 | – | 3.43 | pIC50 (FFLUC_HILL_SLOPE 20.6, FFLUC_R_SQUARED 0.0581, HEPG2TOX_HILL_SLOPE 2.28, HEPG2TOX_R_SQUARED 0.75, PBLUC_HILL_SLOPE 12.8, PBLUC_R_SQUARED 0.452, read-out: LUCIFERASE INFECTION ASSAY - IC50): 5.54 |
| CN(C)C(=O)CNC(=O)c1cc(-c2ccccc2)nc2c1cnn2Cc1ccccc1Cl | – | > 10 | pIC50 (PBLUC_HILL_SLOPE 13.5, PBLUC_R_SQUARED 0.27, read-out: LUCIFERASE INFECTION ASSAY - IC50): 5.06 |
| Oc1ccc(Nc2nccc3[nH]c(-c4cccc(F)c4)cc23)cc1 | – | 8.12 | pIC50 (PBLUC_HILL_SLOPE 3.41, PBLUC_R_SQUARED 0.615, read-out: LUCIFERASE INFECTION ASSAY - IC50): 5.37 |
| C=CCn1c(C)cc(C(=O)Cn2nnc(-c3ccccc3C)n2)c1C | – | > 10 | pIC50 (PBLUC_HILL_SLOPE 0.683, PBLUC_R_SQUARED 0.219, read-out: LUCIFERASE INFECTION ASSAY - IC50): < 5.00 |
| CCCCCn1c(SCC(=O)Nc2sccc2C(N)=O)nc2sc3c(c2c1=O)CCC3 | – | > 10 | pIC50 (FFLUC_HILL_SLOPE 17.7, FFLUC_R_SQUARED 0.0867, read-out: LUCIFERASE INFECTION ASSAY - IC50): < 5.00 |
| O=C(N/N=C/c1cccc(O)c1O)c1ccc(CN2c3cccc4cccc(c34)S2(=O)=O)cc1 | – | > 10 | pIC50 (FFLUC_HILL_SLOPE 14.9, FFLUC_R_SQUARED 0.808, read-out: LUCIFERASE INFECTION ASSAY - IC50): < 5.00 |
| CCS(=O)(=O)N1CCC(C(=O)N(Cc2ccccc2)c2nc(-c3ccc(F)cc3)cs2)CC1 | – | > 10 | pIC50 (PBLUC_HILL_SLOPE 11.3, PBLUC_R_SQUARED 0.297, read-out: LUCIFERASE INFECTION ASSAY - IC50): 5.05 |
| Cc1cc(NC(=O)c2cc(C(C)(C)C)oc2C)nc(C)n1 | < 4.94 | > 11.5 | – |
| Cc1cc(O)cc2c1C(=O)/C(=C/c1ccc(F)cc1)O2 | < 4.91 | > 12.2 | – |
| CS(=O)(=O)c1ccc(-c2cnc3c(NC=O)cc(-c4ccccc4)cn23)cc1 | – | > 8.43 | pIC50 (PBLUC_HILL_SLOPE 4.26, PBLUC_R_SQUARED 0.756, read-out: LUCIFERASE INFECTION ASSAY - IC50): 5.19 |
| O=C(COc1ccc([N+](=O)[O-])c2cccnc12)Nc1ccc(C(F)(F)F)cc1 | – | > 10 | pIC50 (FFLUC_HILL_SLOPE 10, FFLUC_R_SQUARED 0.0627, PBLUC_HILL_SLOPE 68.1, PBLUC_R_SQUARED 0.146, read-out: LUCIFERASE INFECTION ASSAY - IC50): 5.00 |
| CCCCc1ccc(C(=O)Nc2nc3ccc(C)cn3c2C(=O)NCCC)cc1 | – | 3.18 | pIC50 (HEPG2TOX_HILL_SLOPE 1.88, HEPG2TOX_R_SQUARED 0.855, PBLUC_HILL_SLOPE 16.2, PBLUC_R_SQUARED 0.661, read-out: LUCIFERASE INFECTION ASSAY - IC50): 5.56 |
| Cc1ccc(Cn2ccs/c2=N/C(=O)COC(=O)CCN2C(=O)C3CC=CCC3C2=O)cc1 (stereo not given) | < 5.00 | > 10 | – |
| COc1cccc(-c2cc3c(Nc4cccnc4)nccc3[nH]2)c1 | – | > 10 | pIC50 (PBLUC_HILL_SLOPE 3.56, PBLUC_R_SQUARED 0.0884, read-out: LUCIFERASE INFECTION ASSAY - IC50): 5.04 |
| CSc1sc(-c2ccon2)c(-c2cccs2)c1C#N | < 4.97 | > 10.8 | – |
| CC(C)n1cc(C(=O)c2ccccc2O)cc1-c1nc2ccccc2o1 | < 5.00 | > 10 | – |

| SMILES | pIC50 [1] | IC90 [µM] | also measured |
| --- | --- | --- | --- |
| Fc1ccc(CN2CCN(Cc3ccco3)CC2)cc1 | < 4.92 | > 12 | – |
| O=C(Nc1nc2ccccc2[nH]1)c1cccc(S(=O)(=O)N(Cc2ccccc2)c2ccccc2Cl)c1 | – | 3.66 | pIC50 (PBLUC_HILL_SLOPE 15.7, PBLUC_R_SQUARED 0.534, read-out: LUCIFERASE INFECTION ASSAY - IC50): 5.50 |
| CNC(=O)c1ccc(/C=C/C(=O)c2ccc3c4c(cccc24)CC3)cc1 | – | 9.31 | pIC50 (HEPG2TOX_HILL_SLOPE 8.19, HEPG2TOX_R_SQUARED 0.612, PBLUC_HILL_SLOPE 20.8, PBLUC_R_SQUARED 0.622, read-out: LUCIFERASE INFECTION ASSAY - IC50): 5.08 |
| CCn1c2ccccc2c2cc(NC(=O)C(C)OC(=O)c3ccc([N+](=O)[O-])o3)ccc21 (stereo not given) | < 5.00 | > 10 | – |
| O=C(c1cccc(Cl)c1)c1cnc(Nc2cccc(C(F)(F)F)c2)[nH]1 | 5.26 | > 9.02 | – |
| COc1ccc(-c2n[nH]c(SC(C(=O)Nc3cc(Cl)cc(Cl)c3)c3ccccc3)nc2=O)cc1 (stereo not given) | – | 3.75 | pIC50 (FFLUC_HILL_SLOPE 1.9, FFLUC_R_SQUARED 0.863, HEPG2TOX_HILL_SLOPE 8.67, HEPG2TOX_R_SQUARED 0.533, PBLUC_HILL_SLOPE 16.2, PBLUC_R_SQUARED 0.618, read-out: LUCIFERASE INFECTION ASSAY - IC50): 5.49 |
| CC1CCCC(C)N1CCC(=O)NNC(=O)c1cc(-c2ccc(Cl)cc2)nc2ccccc12 (stereo not given) | 5.12 | > 10 | – |
| O=C(Cn1ncc(Cl)c(Cl)c1=O)N1CCc2ccccc21 | – | > 10 | pIC50 (HEPG2TOX_HILL_SLOPE 5.62, HEPG2TOX_R_SQUARED 0.657, PBLUC_HILL_SLOPE 20.9, PBLUC_R_SQUARED 0.129, read-out: LUCIFERASE INFECTION ASSAY - IC50): 5.04 |
| CN(C)CCNC(=O)c1ccc(-c2cn3c(-c4cccc(Cl)c4)cnc3cn2)cc1 | < 5.10 | > 7.86 | – |
| C#Cc1cccc(NC(=O)c2ccc(C(C)(C)C)s2)c1 | – | 8.24 | pIC50 (FFLUC_HILL_SLOPE 0.741, FFLUC_R_SQUARED 0.211, PBLUC_HILL_SLOPE 2.38, PBLUC_R_SQUARED 0.594, read-out: LUCIFERASE INFECTION ASSAY - IC50): 5.48 |
| CCn1c(-c2ccccc2)c(C(=O)COC(=O)c2c(NC(C)=O)sc3c2CCCC3)c2ccccc21 | < 5.00 | > 10 | – |
| CCOC(=O)c1c(C)nn(-c2ccc(N3C(=O)C=CC3=O)cc2)c1C | – | > 9.72 | pIC50 (PBLUC_HILL_SLOPE 1.49, PBLUC_R_SQUARED 0.186, read-out: LUCIFERASE INFECTION ASSAY - IC50): 5.16 |
| c1ccc(-c2ncc(CSc3ncnc4sccc34)s2)cc1 | < 5.00 | > 10 | – |
| Cc1cc(Br)ccc1OCC(=O)NC(C)c1ccccc1 (stereo not given) | – | > 9.48 | pIC50 (HEPG2TOX_HILL_SLOPE 4.44, HEPG2TOX_R_SQUARED 0.285, read-out: LUCIFERASE INFECTION ASSAY - IC50): < 5.02 |
| C=CCn1c(C)cc(C2=NN=C(NC(C)(C)C)SC2)c1C | 6.44 | 0.38 | – |
| Cc1cccn2cc(CN3CCC(c4nc5ccccc5s4)CC3)nc12 | – | 3.59 | pIC50 (PBLUC_HILL_SLOPE 8.96, 1.52, PBLUC_R_SQUARED 0.442, 0.954, read-out: LUCIFERASE INFECTION ASSAY - IC50): 5.59 |
| CC(C)(C)c1ccccc1NC(=O)Nc1nc(C(N)Cc2ccc(Cl)cc2)cs1 (stereo not given) | – | 5.51 | pIC50 (PBLUC_HILL_SLOPE 4.24, PBLUC_R_SQUARED 0.754, read-out: LUCIFERASE INFECTION ASSAY - IC50): 5.48 |
| c1csc(SCc2ccc3nonc3c2)c1 | – | > 13.3 | pIC50 (PBLUC_HILL_SLOPE 1.33, PBLUC_R_SQUARED 0.35, read-out: LUCIFERASE INFECTION ASSAY - IC50): < 4.88 |
| Cc1cc(C)c2c(N)c(C(=O)NNC(=O)COc3ccc4c5c(c(=O)oc4c3)CCC5)sc2n1 | < 5.00 | > 10 | – |
| Cc1ccc(C23CC4CC(CC(C(=O)N5CCN(CCc6ccccc6)CC5)(C4)C2)C3)cc1 | < 5.00 | > 10 | – |
| OCc1ccc(-c2cnc3ccc(-c4cccc(OC(F)(F)F)c4)nn23)cc1 | – | 3.46 | pIC50 (FFLUC_HILL_SLOPE 15.5, FFLUC_R_SQUARED 0.126, HEPG2TOX_HILL_SLOPE 8.34, HEPG2TOX_R_SQUARED 0.955, PBLUC_HILL_SLOPE 1.79, PBLUC_R_SQUARED 0.869, read-out: LUCIFERASE INFECTION ASSAY - IC50): 6.00 |
| O=[N+]([O-])c1cccc2nc(/C=C/c3nn(Cc4ccccc4)cc3-c3cccnc3)ccc12 | < 5.00 | > 10 | – |
